Paper PMC3187750, “Functional Analysis of the Cytoskeleton Protein MreB from Chlamydophila pneumoniae” (PLoS ONE, 2011)

Experiments:
[1] = target: T1, MreB from C. pneumoniae (chlamydial MreB) (Chlamydia pneumoniae, UniProt A0ABN3YSA6); conditions: 5 µM MreB, 200 µM ATP; polymerizing (5 mM MgCl2, pH 7) and monomeric (no MgCl2, pH 8) conditions
T1 sequence (A0ABN3YSA6 2-366): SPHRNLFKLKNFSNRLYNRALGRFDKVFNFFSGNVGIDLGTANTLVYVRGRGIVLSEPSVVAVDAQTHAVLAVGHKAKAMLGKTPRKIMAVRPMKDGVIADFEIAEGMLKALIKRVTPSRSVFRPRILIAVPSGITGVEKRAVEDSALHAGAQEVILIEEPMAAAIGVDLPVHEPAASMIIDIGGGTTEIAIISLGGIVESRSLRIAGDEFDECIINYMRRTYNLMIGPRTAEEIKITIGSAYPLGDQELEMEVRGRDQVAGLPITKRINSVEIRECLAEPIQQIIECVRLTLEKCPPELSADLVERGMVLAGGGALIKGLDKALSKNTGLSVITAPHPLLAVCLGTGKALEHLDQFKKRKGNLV

[2] = target: T1, MreB from C. pneumoniae (chlamydial MreB); experiment: light scattering polymerization assay; type: biochemical; design: pET-21b, EcoRI/XhoI, C-terminal His6 tag kept; expressed in E. coli BL21(DE3); Ni-NTA purified; conditions: standard polymerization conditions (5 µM MreB, 5 mM MgCl2, pH 7, 20 °C)

| Structure (SMILES) | phosphate release, molybdate-malachite green assay [1] | light scattering polymerization assay [2] |
| --- | --- | --- |
| Nc1ncnc2c1ncn2[C@@H]1O[C@H](COP(=O)(O)OP(=O)(O)OP(=O)(O)O)[C@@H](O)[C@H]1O [ATP] | The C345A mutant and wild-type MreB proteins hydrolyzed ATP without marked differences | – |
| Nc1nc2c(ncn2[C@@H]2O[C@H](COP(=O)(O)OP(=O)(O)OP(=O)(O)O)[C@@H](O)[C@H]2O)c(=O)[nH]1 [GTP] | – | In the presence of GTP, the kinetics and extent of wild-type MreB polymerization was impaired |
